The target of the experiment is T1, SIRT1 (Homo sapiens, UniProt Q96EB6).
T1 sequence (Q96EB6 1-747): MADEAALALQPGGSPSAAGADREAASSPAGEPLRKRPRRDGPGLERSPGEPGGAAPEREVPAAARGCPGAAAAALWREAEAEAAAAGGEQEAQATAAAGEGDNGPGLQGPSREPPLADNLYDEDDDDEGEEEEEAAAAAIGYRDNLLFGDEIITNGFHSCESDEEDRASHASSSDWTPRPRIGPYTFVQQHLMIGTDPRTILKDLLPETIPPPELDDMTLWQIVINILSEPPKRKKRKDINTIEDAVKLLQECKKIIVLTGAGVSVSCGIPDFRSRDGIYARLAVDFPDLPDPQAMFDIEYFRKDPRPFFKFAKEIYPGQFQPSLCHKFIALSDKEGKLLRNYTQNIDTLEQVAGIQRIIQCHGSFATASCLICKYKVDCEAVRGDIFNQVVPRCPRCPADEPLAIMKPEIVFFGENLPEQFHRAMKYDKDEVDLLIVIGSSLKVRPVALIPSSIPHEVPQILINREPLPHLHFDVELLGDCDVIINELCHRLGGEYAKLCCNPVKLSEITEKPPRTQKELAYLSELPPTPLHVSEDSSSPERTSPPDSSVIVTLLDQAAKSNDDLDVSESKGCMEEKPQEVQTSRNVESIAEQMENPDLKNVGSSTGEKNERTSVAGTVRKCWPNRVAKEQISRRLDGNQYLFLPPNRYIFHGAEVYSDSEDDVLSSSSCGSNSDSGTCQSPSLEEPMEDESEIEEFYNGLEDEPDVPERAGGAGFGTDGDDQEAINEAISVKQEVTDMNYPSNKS
The experiment in a line: Trp mass spectrometry assay of SIRT1 activation. Type of experiment: biochemical. Conditions: for TRP Activity (EC1.5): EC1.5 = concentration that results in 150% activation of SIRT1. A digest of the protocol:
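N-terminal His-tagged human SIRT1 (10 nM, E. coli BL21(DE3)) with 0.5 μM Ac-RHKK(Ac)W-NH2 peptide and 120 μM βNAD+, 25 min at 25 °C in HEPES pH 7.5, formic acid stop. OAADPR or deacetylated peptide quantified by mass spectrometry; EC1.5 (50% activity increase over control) and Percent Maximum Activation reported.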

[1] abbreviates: Trp peptide substrate, concentration giving 150% activation of SIRT1.
[2] abbreviates: concentration giving 150% activation of SIRT1, Trp peptide substrate.
The mark [3] stands for this setting: Trp mass spectrometry assay, EC1.5 = concentration of test compound that results in 150% activation of SIRT1.
The mark [4] stands for this setting: Trp mass spectrometry assay, concentration of test compound giving 150% activation of SIRT1.
The mark [5] stands for this setting: Trp peptide assay, maximum activity relative to control (100%), read-out: TRP MAX RESP (percent maximum fold activation).

Where two headings read alike, the source gives them in different places.

For `O=C(Nc1cccc2nccnc12)N1c2nc(-c3cccc(C(F)(F)F)c3)ccc2N2CC[C@H]1C2` [Example 83], the “Tryp AVG EC1.5 (μM)” value under setting [1] is reported as “A (A (EC1.5<1 μM))”.

For the molecule `C#Cc1ccc(NC(=O)N2c3nc(-c4ccc(C5(C(F)(F)F)N=N5)cc4)ccc3N3CC[C@H]2C3)nc1` [Example 807], the “Tryp AVG EC1.5 (μM)” value under setting [2] is reported as “C (C (EC1.5>25 μM))”.

In the case of `Cc1nc(NC(=O)N2c3nc(-c4cccc(Cl)c4)ccc3N3CCC2CC3)sc1C` [Example 569], the “Tryp AVG EC1.5 (μM)” value under setting [3] was “B (B (EC1.5 1-25 μM))”.

With `O=C(Nc1ccccn1)N1c2nc(-c3cncc(C(F)(F)F)c3)ccc2N2CCC[C@H]1C2` [Example 369], the “Tryp AVG EC1.5 (μM)” value under setting [4] is given as “A (A (EC1.5<1 μM))”.

As to `CN1CCN(c2ccc3c(n2)N(C(=O)Nc2cnccn2)[C@H]2CCN3C2)CC1` [(9S)-5-(4-methylpiperazin-1-yl)-N-(pyrazin-2-yl)-1,6,8-triazatricyclo[7.2.1.0 {2,7}]dodeca-2(7),3,5-triene-8-carboxamide], the “TRP Activity (EC1.5)” value (Trp peptide assay) was “B (B (EC1.5 1-25 μM))”. The Emax under setting [5] is greater than 150%.

`CN1CCN(c2ccnc(NC(=O)N3c4nc(-c5cccc(C(F)(F)F)c5)ccc4N4CC[C@H]3C4)n2)CC1` [Example 742]: under setting [2], the “Tryp AVG EC1.5 (μM)” value is recorded as “A (A (EC1.5<1 μM))”.

Regarding `Cc1[nH]ncc1-c1ccc2c(n1)N(C(=O)Nc1cccnc1)[C@H]1CCN2C1` [Example 490], under setting [3], the “Tryp AVG EC1.5 (μM)” value is “B (B (EC1.5 1-25 μM))”.

For the molecule `CC1(CCC(=O)NCc2ccc(NC(=O)N3c4nc(-c5cccc(C(F)(F)F)c5)ccc4N4CC[C@H]3C4)cc2)N=N1` [Example 548], under setting [3], the “Tryp AVG EC1.5 (μM)” value is “B (B (EC1.5 1-25 μM))”.

As for `CCN(CC)C(=O)N1c2nc(-c3cccc(C(F)(F)F)c3)ccc2N2CC[C@H]1C2` [Example 52], under setting [1], the “Tryp AVG EC1.5 (μM)” value was “C (C (EC1.5>25 μM))”.

In the case of `O=C(Nc1ccnc(OC[C@H](O)CO)c1)N1c2nc(-c3cccc(C(F)(F)F)c3)ccc2N2CC[C@H]1C2` [(9S)-N-{2-[(2R)-2,3-dihydroxypropoxy]pyridin-4-yl}-5-[3-(trifluoromethyl)phenyl]-1,6,8-triazatricyclo[7.2.1.0 {2,7}]dodeca-2(7),3,5-triene-8-carboxamide], the “TRP Activity (EC1.5)” value (Trp peptide assay) is recorded as “A (A (EC1.5<1 μM))”. In addition, under setting [5], the Emax is greater than 150%.

In the case of `C#CCOc1cccc(NC(=O)N2c3nc(-c4ccc(C5(C(F)(F)F)N=N5)cc4)ccc3N3CC[C@H]2C3)c1` [Example 802], the “Tryp AVG EC1.5 (μM)” value under setting [2] is “B (B (EC1.5 1-25 μM))”.

As to `Cc1cc(-c2ccc3c(n2)N(C(=O)Nc2cnn(C)c2)[C@H]2CCN3C2)ccn1` [Example 482], the “Tryp AVG EC1.5 (μM)” value under setting [3] was “B (B (EC1.5 1-25 μM))”.

For `O=C(Nc1ccccn1)N1c2nc(-c3ccc(Cl)c(Cl)c3)ccc2N2CC[C@H]1C2` [Example 332], the “Tryp AVG EC1.5 (μM)” value under setting [4] is reported as “A (A (EC1.5<1 μM))”.

For `O=C(Nc1ccncc1)N1c2nc(-c3cccc(C(F)(F)F)c3)ccc2N2CC(O)C1C2` (stereo not shown) [Compound 114], the Emax (Trp peptide substrate, percent maximum fold activation of SIRT1, read-out: Tryp % Fold Act) is greater than 150%.

Consider `Cc1cc(-c2ccc3c(n2)N(C(=O)Nc2nccnc2F)[C@H]2CCN3C2)ccn1` [(9S)-N-(3-fluoropyrazin-2-yl)-5-(2-methylpyridin-4-yl)-1,6,8-triazatricyclo[7.2.1.0^{2,7}]dodeca-2,4,6-triene-8-carboxamide], for which the “TRP Activity (EC1.5)” value (Trp peptide assay) is “B (B (EC1.5 1-25 μM))”. The Emax under setting [5] was greater than 150%.

In the case of `O=C(Nc1cccc(-c2ccccn2)c1)N1c2nc(-c3cccc(C(F)(F)F)c3)ccc2N2CC[C@H]1C2` [Example 667], the “Tryp AVG EC1.5 (μM)” value under setting [2] was “A (A (EC1.5<1 μM))”.

`N#Cc1cccc(-c2ccc3c(n2)N(C(=O)Nc2cncc(F)c2)[C@H]2CCCN3C2)c1` [Example 353]: under setting [4], the “Tryp AVG EC1.5 (μM)” value is “A (A (EC1.5<1 μM))”.

For `CS(=O)(=O)Nc1cccc(NC(=O)N2c3nc(-c4cccc(C(F)(F)F)c4)ccc3N3CC[C@H]2C3)c1` [Example 642], the “Tryp AVG EC1.5 (μM)” value under setting [2] is “A (A (EC1.5<1 μM))”.

Consider `O=C(NCCc1ccncc1)N1c2nc(-c3cccc(C(F)(F)F)c3)ccc2N2CC[C@H]1C2` [Example 613], for which the “Tryp AVG EC1.5 (μM)” value under setting [3] is “B (B (EC1.5 1-25 μM))”.

Consider `N#Cc1ncc(-c2ccc3c(n2)N(C(=O)Nc2cnccn2)[C@H]2CCN3C2)cc1F` [(9S)-5-(6-cyano-5-fluoropyridin-3-yl)-N-(pyrazin-2-yl)-1,6,8-triazatricyclo[7.2.1.0^2,7]dodeca-2(7),3,5-triene-8-carboxamide], for which the “TRP Activity (EC1.5)” value (Trp peptide assay) is on record as “C (C (EC1.5>25 μM))”. Moreover, the Emax under setting [5] was less than 150%.

Regarding `Cc1ccc(-c2ccc3c(n2)N(C(=O)NC2CCN(C)CC2)[C@H]2CCN3C2)cn1` [(9S)-N-(1-methylpiperidin-4-yl)-5-(6-methylpyridin-3-yl)-1,6,8-triazatricyclo[7.2.1.0^{2,7}]dodeca-2(7),3,5-triene-8-carboxamide], the “TRP Activity (EC1.5)” value (Trp peptide assay) is “C (C (EC1.5>25 μM))”. The Emax under setting [5] was less than 150%.

As to `O=C(NCC(F)(F)F)c1ccc2c(n1)N(C(=O)Nc1ccccn1)[C@H]1CCN2C1` [(9S)-8-N-(pyridin-2-yl)-5-N-(2,2,2-trifluoroethyl)-1,6,8-triazatricyclo[7.2.1.0 {2,7}]dodeca-2(7),3,5-triene-5,8-dicarboxamide], the “TRP Activity (EC1.5)” value (Trp peptide assay) was “A (A (EC1.5<1 μM))”. For the same molecule, the Emax under setting [5] was greater than 150%.

Consider `O=C(Nc1cncc(OC[C@H](O)CO)n1)N1c2nc(-c3cccc(C(F)(F)F)c3)ccc2N2CC[C@H]1C2` [(9S)-N-{6-[(2R)-2,3-dihydroxypropoxy]pyrazin-2-yl}-5-[3-(trifluoromethyl)phenyl]-1,6,8-triazatricyclo[7.2.1.0 {2,7}]dodeca-2(7),3,5-triene-8-carboxamide], for which, where the note is “Trp peptide assay”, the “TRP Activity (EC1.5)” value was “A (A (EC1.5<1 μM))”. Further, the Emax under setting [5] is greater than 150%.

In the case of `O=C(Nc1ccc(F)cn1)N1c2nc(-c3cncc(Cl)c3)ccc2N2CCC[C@H]1C2` [Example 401], the “Tryp AVG EC1.5 (μM)” value under setting [4] is recorded as “A (A (EC1.5<1 μM))”.

For the molecule `Cc1cc(-c2ccc3c(n2)N(C(=O)N[C@@H](C)c2ccccn2)[C@H]2CCN3C2)ccn1` [(9S)-5-(2-methylpyridin-4-yl)-N-[(1S)-1-(pyridin-2-yl)ethyl]-1,6,8-triazatricyclo[7.2.1.0 {2,7}]dodeca-2,4,6-triene-8-carboxamide], for the setting “Trp peptide assay”, the “TRP Activity (EC1.5)” value was “C (C (EC1.5>25 μM))”. Also, the Emax under setting [5] was less than 150%.

Consider `Cc1ccc(-c2ccc3c(n2)N(C(=O)Nc2cccnn2)[C@H]2CCCN3C2)cn1` [Example 467], for which the “Tryp AVG EC1.5 (μM)” value under setting [3] is listed as “B (B (EC1.5 1-25 μM))”.

With `Cc1cncc(NC(=O)N2c3nc(-c4ccnc(C)c4)ccc3N3CC[C@H]2C3)c1` [(9S)-N-(5-methylpyridin-3-yl)-5-(2-methylpyridin-4-yl)-1,6,8-triazatricyclo[7.2.1.0 {2,7}]dodeca-2(7),3,5-triene-8-carboxamide], the “TRP Activity (EC1.5)” value (Trp peptide assay) is on record as “B (B (EC1.5 1-25 μM))”. Further, the Emax under setting [5] was greater than 150%.

Regarding `O=C(Nc1cnccn1)N1c2nc(-c3ccc(C(F)(F)F)nc3)ccc2N2CC[C@H]1C2` [(9S)-N-(pyrazin-2-yl)-5-[6-(trifluoromethyl)pyridin-3-yl]-1,6,8-triazatricyclo[7.2.1.0 {2,7}]dodeca-2(7),3,5-triene-8-carboxamide], for the setting “Trp peptide assay”, the “TRP Activity (EC1.5)” value is given as “B (B (EC1.5 1-25 μM))”. In addition, the Emax under setting [5] was greater than 150%.

Take `Cc1ccc(-c2cccc(NC(=O)N3c4nc(-c5cccc(C(F)(F)F)c5)ccc4N4CC[C@H]3C4)c2)cc1C` [Example 619]: the “Tryp AVG EC1.5 (μM)” value under setting [3] is recorded as “C (C (EC1.5>25 μM))”.

In the case of `Cc1cc(-c2ccc3c(n2)N(C(=O)Nc2ccnnc2)[C@H]2CCN3C2)ccn1` [(9S)-5-(2-methylpyridin-4-yl)-N-(pyridazin-4-yl)-1,6,8-triazatricyclo[7.2.1.0^{2,7}]dodeca-2,4,6-triene-8-carboxamide], the “TRP Activity (EC1.5)” value (Trp peptide assay) is “B (B (EC1.5 1-25 μM))”. Besides, under setting [5], the Emax is greater than 150%.

Take `CCOc1cnc(NC(=O)N2c3nc(-c4ccnc(C)c4)ccc3N3CC[C@H]2C3)cn1` [(9S)-N-(5-ethoxypyrazin-2-yl)-5-(2-methylpyridin-4-yl)-1,6,8-triazatricyclo[7.2.1.0 {2,7}]dodeca-2(7),3,5-triene-8-carboxamide]: where the note is “Trp peptide assay”, the “TRP Activity (EC1.5)” value is “B (B (EC1.5 1-25 μM))”. The Emax under setting [5] was greater than 150%.

As to `CCCn1cc(-c2cccc(NC(=O)N3c4nc(-c5cccc(C(F)(F)F)c5)ccc4N4CC[C@H]3C4)n2)cn1` [Example 656], under setting [2], the “Tryp AVG EC1.5 (μM)” value is given as “A (A (EC1.5<1 μM))”.

Consider `Cc1nc(NC(=O)N2c3nc(-c4cccc(Cl)c4)ccc3N3CC[C@H]2C3)sc1C` [Example 102], for which, under setting [1], the “Tryp AVG EC1.5 (μM)” value is recorded as “A (A (EC1.5<1 μM))”.

With `Cc1n[nH]cc1-c1ccc2c(n1)N(C(=O)Nc1ccccn1)[C@H]1CCN2C1` [Example 370], under setting [4], the “Tryp AVG EC1.5 (μM)” value is listed as “B (B (EC1.5 1-25 μM))”.
